PMC11360180, “Enhancement of Antimicrobial Function by L/D-Lysine Substitution on a Novel Broad-Spectrum Antimicrobial Peptide, Phylloseptin-TO2: A Structure-Related Activity Research Study” (Pharmaceutics, 2024)
Where a SMILES comes first, the peptide text is derived from it. Where no end group is shown, it is not given here. [ ]: non-standard residue; d: D form.

What was measured:
horse red blood cells = format: cell-based
Experimental: To assess the haemolytic activity of PSTO2 and its analogues, 2% fresh defibrinated horse red blood cells (TCS Biosciences Ltd., Buckingham, UK) were acquired after being washed and resuspended in sterile PBS. Each peptide was dissolved in PBS to prepare solutions with concentrations ranging from 2 µM to 1024 µM. Subsequently, 100 µL of each peptide solution was mixed with 100 µL of the red blood cell suspension. The red blood cells treated with 1% triton X-100 and sterile PBS in equivalent volumes were set up as the positive and negative control groups, respectively. Then, all the samples were incubated at 37 °C for 2 h. Thereafter, the samples were centrifuged at 900× g for 10 min. Finally, 100 µL of supernatant of each sample was transferred into a 96-well plate, and the absorbance was recorded by a Synergy HT plate reader (Bio-Tek, Shoreline, WA, USA) at a wavelength of 570. The following equation was used to calculate haemolysis activity:Haemolysis activity = (Sample absorbance − Ab)/(Ap − Ab) × 100% where Ab refers to the mean value of absorbance of the negative control (incubated with PBS only), and Ap refers to the mean absorbance value of the positive control (incubated with triton X-100).

[1] = test system: MRSA (ATCC 12493) biofilm; format: cell-based, methicillin-resistant Staphylococcus aureus; details: ATCC 12493, 24 h
Experimental: To test the anti-biofilm ability of PSTO2 and its analogues, three types of microorganisms (S. aureus ATCC® 6538, E. coli ATCC® 8739, and MRSA NCTC® 12493) were chosen. Tryptic soy broth (TSB) and Lysogeny broth (LB) were used to culture microorganisms. The peptide was dissolved in an autoclaved PBS solution and diluted into concentrations ranging from 51,200 µM to 100 µM. One µL of peptide solution of each concentration was added into a 96-well plate with 100 µL bacterium at 5 × 10^5 CFU/mL. The plate was incubated at 37 °C for 24 h, with shaking at 200 rpm. After overnight incubation, the planktonic bacteria were washed up. Then, 100 µL of methanol was used to fix the biofilms onto the bottom, and 100 µL of 0.1% crystal violet solution (Sigma-Aldrich, Gillingham, UK) was added to each well to stain the biofilms. After drying, 160 µL of acetic acid (30% in deionised water, Sigma-Aldrich, UK) was added to each well to dissolve the shaded parts. The absorbance was detected with the Synergy HT plate reader at λ = 595 nm.
For the MBEC assay, 100 µL of the bacterium of 5 × 10^5 CFU/mL was transferred into an empty 96-well plate, and the plate was incubated at 37 °C for 24 h to obtain the biofilms primarily. Then, the peptide solution from 512 µM to 1 µM was transferred into a corresponding well, followed by 24 h incubation at 37 °C, with shaking at 200 rpm. After this, the plate was handled using the identical method to the plate in the MBIC assay, and the absorbance of each well was detected with the Synergy HT plate reader at λ = 595 nm. The minimum concentration at which the peptide can eradicate the existing biofilm was recorded as the MBEC value.

MCF-7 = format: cell-based, human; details: 24 h
Experimental: (§1) The percentage of cancer cell survival after being treated with peptides was assessed with 3-(4,5-dimethylthiazol-2-yl-)-2,5-diphenyltetrazolium bromide (MTT). The principle is the reduction process of the yellow tetrazolium to DMSO-soluble formazan crystals caused by the metabolic capability of living cells. All the cancerous and normal cells were obtained from the American Type Culture Collection (Rockville, VA, USA). Human lung cancer NCI-H838 and NCI-H460 were cultured in Roswell Park Memorial Institute (RPMI)-1640 medium (Gibco, Paisley, UK) and mixed with 10% (v/v) fetal bovine serum (FBS) (Gibco, Campinas, Brazil) and 1% penicillin–streptomycin (Gibco, Grand Island, NY, USA) 89/10/1 v/v/v). U251MG and MCF-7 were cultured in Dulbecco’s Modified Eagle medium (DMEM) (Gibco, Paisley, UK) and mixed with 10% FBS and 1% penicillin–streptomycin. HCT 116 was cultured in McCoy’s 5A (modified) medium (Gibco, Paisley, UK) and mixed with 10% FBS and 1% penicillin–streptomycin. MRC-5 and HaCat were cultured in Minimum Essential Medium (MEM) (Gibco, Paisley, UK) and mixed with 10% FBS and 1% penicillin–streptomycin. Cells were cultured and seeded in a 96-well plate at a density of 8000 cells/well with the corresponding medium and incubated for 24 h at 37 °C with 5% CO2. After 24 h of incubation, the cells were starved with a serum-free medium for 4 h at 37 °C. Then, the cells were incubated with different concentrations of peptide solution in a serum-free medium from 1 nM to 100 µM at 37 °C for 24 h. Meanwhile, triton X-100 (0.1%) (Sigma-Aldrich, St. Louis, MO, USA) and PBS were chosen as positive and negative controls. After 10 µL of MTT (5 mg/mL) was added to each well away from light and incubated at 37 °C for 2 h, the formazan generated by mitochondria was dissolved with DMSO. The absorbance was detected at a wavelength of 570 nm by a Synergy HT plate reader (Bio-Tek, Shoreline, WA, USA).

NCI-H838 = format: cell-based, human; details: 24 h
Experimental: as §1

U251MG = format: cell-based, human; details: 24 h
Experimental: as §1

NCI-H460 = format: cell-based, human; details: 24 h
Experimental: as §1

HaCat = format: cell-based; details: 24 h
Experimental: as §1

MRC-5 = format: cell-based; details: 24 h
Experimental: as §1

Work on `CC[C@H](C)[C@H](NC(=O)[C@H](C)NC(=O)[C@@H](CCCCN)NC(=O)[C@@H]1CCCN1C(=O)[C@@H](NC(=O)[C@H](CC(C)C)NC(=O)[C@H](CO)NC(=O)[C@H](CC(C)C)NC(=O)[C@@H](N)Cc1ccccc1)[C@@H](C)CC)C(=O)N[C@@H](CCCCN)C(=O)N[C@@H](C)C(=O)N[C@H](C(=O)N[C@@H](CCCCN)C(=O)N[C@@H](C)C(=O)N[C@@H](CC(C)C)C(=O)N[C@@H](C)C(=O)N[C@@H](CCCCN)C(=O)N[C@H](CCCCN)C(=O)N[C@@H](CC(C)C)C(N)=O)C(C)C` [SR2D10] (H-FLSLIP[dK]AIKAVKALAK[dK]L-NH2) yielded an HC10 (horse red blood cells) of 75.24, an MBEC [1] of 32 µM and an MBIC [1] of 16 µM. For the same compound, the IC50 (MCF-7) was 26.4 µM, the IC50 (NCI-H838) was 9.49 µM and the IC50 (U251MG) was 16.1 µM. For the same compound, the IC50 (NCI-H460) was 7.7 µM, the IC50 (HaCat) was 84.03 µM and the IC50 (MRC-5) was 74.39 µM.
`CC[C@H](C)[C@H](NC(=O)[C@H](C)NC(=O)[C@@H](CCCCN)NC(=O)[C@@H]1CCCN1C(=O)[C@@H](NC(=O)[C@H](CC(C)C)NC(=O)[C@H](CO)NC(=O)[C@H](CC(C)C)NC(=O)[C@@H](N)Cc1ccccc1)[C@@H](C)CC)C(=O)N[C@@H](CCCCN)C(=O)N[C@@H](C)C(=O)N[C@H](C(=O)N[C@@H](CO)C(=O)N[C@@H](C)C(=O)N[C@@H](CC(C)C)C(=O)N[C@@H](C)C(=O)N[C@@H](CCCCN)C(=O)N[C@@H](CCCCN)C(=O)N[C@@H](CC(C)C)C(N)=O)C(C)C` [SRD7] (H-FLSLIP[dK]AIKAVSALAKKL-NH2) showed an HC10 (horse red blood cells) of 74.78, an MBEC [1] of 16 µM and an MBIC [1] of 4 µM. The IC50 (MCF-7) was 15.2 µM, the IC50 (NCI-H838) was 3.32 µM and the IC50 (U251MG) was 13.9 µM. It also gave an IC50 (NCI-H460) of 2.31 µM, an IC50 (HaCat) of 77.89 µM and an IC50 (MRC-5) of 77.28 µM.
FLSLIPKAIKAVKALAKKL-NH2 [SR2] was tested, and the HC10 (horse red blood cells) was 6.53, the MBEC [1] was 16 µM and the IC50 (MCF-7) was 7.83 µM. For the same compound, the IC50 (NCI-H838) was 3.13 µM, the IC50 (U251MG) was 6.72 µM and the IC50 (NCI-H460) was 5.92 µM. The IC50 (HaCat) was 3.48 µM and the IC50 (MRC-5) was 6.56 µM.
FLSLIPKAIKAVSALAKKL-NH2 [SR] showed an HC10 (horse red blood cells) of 12.60, an MBEC [1] of 16 µM and an IC50 (MCF-7) of 6.05 µM. It also gave an IC50 (NCI-H838) of 2.88 µM, an IC50 (U251MG) of 9.65 µM and an IC50 (NCI-H460) of 3.07 µM. For the same compound, the IC50 (HaCat) was 4.13 µM and the IC50 (MRC-5) was 6.98 µM.
